Experimental data from the NIST ThermoML archive (doi:10.1016/j.fluid.2010.03.004).

Assay: xn = mol fraction of the nth substance listed
Details: Liquid, Vibrating tube method

CCCO [propan-1-ol] + O=C=O
Details	mass density [kg/m3]
313.24 K, x2 = 0.202	807
313.24 K, x2 = 0.2572	812.6
313.24 K, x2 = 0.3141	817.6
313.24 K, x2 = 0.4054	823.3
313.24 K, x2 = 0.4405	824.4
313.24 K, x2 = 0.5256	826.3
313.24 K, x2 = 0.5773	825.7
313.24 K, x2 = 0.6774	822
313.24 K, x2 = 0.7843	786.8
363.17 K, x2 = 0.1483	752
363.17 K, x2 = 0.2294	754.9
363.17 K, x2 = 0.3137	754.8
363.17 K, x2 = 0.4007	753.6
363.17 K, x2 = 0.4863	749.7
363.17 K, x2 = 0.6808	680.6
363.17 K, x2 = 0.7308	638.5

CC(C)O [propan-2-ol] + O=C=O
Details	mass density [kg/m3]
313.22 K, x2 = 0.1267	783.1
313.22 K, x2 = 0.2066	789.6
313.22 K, x2 = 0.3029	799.3
313.22 K, x2 = 0.3845	803.6
313.22 K, x2 = 0.4501	806.7
313.22 K, x2 = 0.554	805.4
313.22 K, x2 = 0.6472	794.9
313.22 K, x2 = 0.7539	783.1
313.22 K, x2 = 0.902	703.7
333.03 K, x2 = 0.137	761
333.03 K, x2 = 0.2077	762.7
333.03 K, x2 = 0.3001	765
333.03 K, x2 = 0.4023	767.5
333.03 K, x2 = 0.4645	768.5
333.03 K, x2 = 0.6377	770.7
333.03 K, x2 = 0.7582	771.4
333.03 K, x2 = 0.8297	771.4
348.25 K, x2 = 0.0736	741.2
348.25 K, x2 = 0.1432	743.9
348.25 K, x2 = 0.2469	746.5
348.25 K, x2 = 0.3234	748.6
348.25 K, x2 = 0.4042	750.9
348.25 K, x2 = 0.5132	752.9
348.25 K, x2 = 0.5658	753.6
348.25 K, x2 = 0.7177	745.3
348.25 K, x2 = 0.755	646.5
348.25 K, x2 = 0.8241	568
362.92 K, x2 = 0.1016	641.7
362.92 K, x2 = 0.1668	690.6
362.92 K, x2 = 0.2312	726.4
362.92 K, x2 = 0.3079	728.3
362.92 K, x2 = 0.3719	728.7
362.92 K, x2 = 0.4681	726.5
362.92 K, x2 = 0.5653	704.5
362.92 K, x2 = 0.6285	671.6
362.92 K, x2 = 0.7165	590.4
